Patent US20200085812A1, “HEAT SHOCK PROTEIN INDUCERS AND FRONTOTEMPORAL DISORDERS” (Orphazyme A/S, priority 2017, published 2020)

What was measured:
mutant VCP (mVCP) mice [1] = assay: In vivo physiology of EDL muscle: motor unit counts and maximal tetanic force; design: species or system mouse; conditions: 4 to 14 months, FIG. 1
Description: (§1) Arimoclomol treatment: Male mutant VCP (mVCP) mice were treated with Arimoclomol (120 mg/kg daily; orally in drinking water), from the start of symptom onset at 4 months, until close to end-stage at 14 months. Transgenic mice over-expressing wild-type human VCP (wt-VCP) were used as controls, and 10 male mice per group were studied; a sample size sufficient to test for statistical significance at P<0.05 in a single sex group.
In vivo physiology was carried out acutely at 14 months of age on terminally anaesthetized mice to quantify the number of motor units in the extensor digitorum longus (EDL) muscle in the hindlimb of mice in all experimental groups. Briefly, Isometric contractions were elicited by stimulating the Extensor Digitorum Longus (EDL) motor nerve using pulses of 0.02 ms duration and supramaximal intensity via electrodes. Contractions were elicited by stimulation of the sciatic nerve. The number of motor units in the EDL muscles was determined by stimulating the motor nerve with stimuli of increasing intensity, resulting in stepwise increments in twitch tension because of successive recruitment of motor axons.

mutant VCP (mVCP) mice [2] = assay: Motor neuron counts and area measurements, sciatic pool of spinal cord; type: in vivo, mouse; conditions: 120 mg/kg daily orally, 4 to 14 months, FIG. 2
Description: as §1
20 μm spinal cord sections from L3-L6 were stained with gallocyanin to visualise neurons for quantification (5 mice per group). […] 20 images of the sciatic pool regions of the spinal cord were taken per animal to measure the size distribution of motor neurons present in this area (at ×20 magnification). A minimum of 3 mice per experimental group were assessed. The soma area of motor neurons was determined by drawing around individual Nissl stained (gallocyanin) motor neuron cell bodies in cross-sectional images of L4-L5 region of the spinal cord. This was recorded using Leica Application Suite V3.8 analysis software and presented as a percentage of the total number of motor neurons per group.

mutant VCP (mVCP) mice [3] = assay: Immunohistochemistry of brain and spinal cord for pathology markers (TDP-43, ubiquitin, p-tau, p62, LC3, myelin, stress granule markers); type: in vivo, mouse; conditions: 120 mg/kg daily orally, 4 to 14 months
Description: as §1
(§2) Brain and spinal cords were harvested from mice in all experimental groups following transcardial perfusion with saline followed by 4% paraformaldehyde (PFA). Brain and spinal cords were then kept in 4% PFA for 12 hours before being transferred to a 30% sucrose solution. Cross-sections of brain and spinal cords were cut at 20 μm and blocked in 10% Normal Goat serum with 0.1% Triton X100 in PBS before primary antibodies were added for 1 hour at room temperature. Primary antibodies: Rabbit anti-TDP-43 [1:500], Rabbit anti-ubiquitin [1:500], mouse anti-phospho tau (AT8) [1:100], Rabbit/mouse anti-Beta-3 tubulin [1:100], mouse anti-HSP70 [1:100], Mouse anti-p62 [1:200], Rabbit anti-LC3 [1:500]Rabbit anti-Iba1 [1:100], anti neurofilament 2H3 [1:20], Synaptic vesicle protein [1:20], Fluoromyelin Red myelin stain [1:300]. Fluorescently labelled or biotinylated secondary antibodies were used 1:1000 for 2 hours at room temperature. 4′6-Diamidino-2-Phenylindole, Dihydrochloride (DAPI) was used to counterstain for nuclei in all fluorescent images. Imaging of tissue was using a standard Leica light/fluorescent microscope or a LSM 780 confocal microscope.
(§3) Fluorescent images were visualised under a Leica fluorescent microscope and analysed using Leica Application Suite software (Leica Microsystems, Germany).

HSP70 [4] = assay: HSP70 immunostaining of brain and spinal cord of mVCP mice; type: in vivo, mouse
Description: as §1, §2, §3

mutant VCP (mVCP) mice [5] = assay: TUNEL assay for apoptotic cells in brain; type: in vivo, mouse; conditions: 120 mg/kg daily orally, 4 to 14 months, FIG. 9
Description: as §1
Apoptosis in the brain was assessed by Terminal deoxynucleotidyl transferase (TdT) dUTP Nick-End Labeling (TUNEL) assay for apoptotic cells, where nuclei containing double-stranded breaks in the DNA fluoresce green (Fluoroscein-tagged), indicating DNA degradation at the later stage of apoptosis (FIG. 9). In some mVCP mice, TUNEL-positive nuclei in small areas of layer I in the cortex were detected which were not seen in control animals, indicating brain cells undergoing apoptosis.

[6] = tested on: iPSC-derived motor neurons from mVCP patients; assay: TDP-43 immunostaining of mVCP patient iPSC-derived motor neurons; type: cell-based, human; conditions: 10 μM for 24 hours, FIG. 12 A
Description: (§4) iPSCs were maintained on Geltrex (Life Technologies) with Essential 8 Medium media (Life Technologies), and passaged using EDTA (Life Technologies, 0.5 mM). All cell cultures were maintained at 37° C. and 5% carbon dioxide. Motor neuron (MN) differentiation was carried out using a previously published protocol (Hall et al., 2017). Briefly, iPSCs were first differentiated to neuroepithelium by plating to 100% confluency in chemically defined medium consisting of DMEM/F12 Glutamax, Neurobasal, LGlutamine, N2 supplement, non-essential amino acids, B27 supplement, […] (all from Life Technologies) and insulin (Sigma). Treatment with small molecules from day 0-7 was as follows: 1 μM Dorsomorphin (Sigma), 2 μM SB431542 (Sigma), and 3 μM CHIR99021 (Sigma). At day 8, the neuroepithelial layer was enzymatically dissociated using dispase (GIBCO, 1 mg/ml), plated onto Geltrex coated plates and next patterned for 7 days with 0.5 μM retinoic acid and 1 μM Purmorphamine. At day 14 spinal cord MN precursors were treated with 0.1 μM Purmorphamine for a further 4 days before being terminally differentiated in 0.1 μM Compound E (Sigma) to promote cell cycle exit. Cells were treated with 10 μM Arimoclomol for 24 hours following terminal differentiation and fixed in PFA for immuno-labelling.

HSP70 [7] = assay: HSP70 immunostaining of mVCP patient iPSC-derived motor neurons; type: cell-based, human; conditions: 10 μM for 24 hours, FIG. 12 B
Description: as §4

mutant VCP (mVCP) mice [8] = conditions: cited from earlier work
HSP70 [9] = conditions: treated versus untreated mVCP mice; cited from earlier work
[10] = mVCP mice treated with Arimoclomol, previously published study

[O-][n+]1cccc(/C(Cl)=N/OC[C@H](O)CN2CCCCC2)c1 [Arimoclomol, N-[2-hydroxy-3-(1-piperidinyl)-propoxy]-pyridine-1-oxide-3-carboximidoyl chloride]
number of motor units in EDL muscle (motor unit survival) (mutant VCP (mVCP) mice [1]; 120 mg/kg daily orally in drinking water): reduction in motor unit survival is prevented | muscle force generated by the EDL muscle (mutant VCP (mVCP) mice [1]; 120 mg/kg daily orally, versus untreated mice): significantly greater than in untreated mice | motor neuron survival in sciatic pool (L3-6) of spinal cord (mutant VCP (mVCP) mice [2]): reduction in motor neuron survival is prevented | shift towards smaller motor neuron soma size (mutant VCP (mVCP) mice [2]): This shift is not seen | accumulation of p62 in spinal cord (mutant VCP (mVCP) mice [3]; FIG. 5): significantly ameliorated | myelin abnormalities in spinal cord (mutant VCP (mVCP) mice [3]; FIG. 5): significantly ameliorated | increased LC3 expression in spinal cord (mutant VCP (mVCP) mice [3]; FIG. 5 D): significantly ameliorated | phosphorylated tau-positive (p-tau) extracellular aggregates/lesions in brain (mutant VCP (mVCP) mice [3]; FIG. 6): prevents the formation of these proteinaceous aggregates | TDP-43 cytoplasmic mislocalisation in brain and spinal cord (mutant VCP (mVCP) mice [3]; FIGS. 3 and 4): TDP-43 mislocalisation was reduced | ubiquitin-positive intracellular aggregates in brain and spinal cord (mutant VCP (mVCP) mice [3]; FIGS. 5 and 6): prevents the formation of these proteinaceous aggregates | fluorescence intensity of HSP70 immunoreactivity in spinal cord (quantification) (HSP70 [4]; mVCP mice treated versus untreated, FIG. 8 B): enhanced | HSP70 expression in glial cells of spinal cord and brain (HSP70 [4]; mVCP mice, 120 mg/kg daily orally, 4 to 14 months): increased expression of HSP70 | HSP70 expression in brain and spinal cord (HSP70 [4]; mVCP mice, 120 mg/kg daily orally, 4 to 14 months, versus untreated mVCP, FIGS. 7 and 8): further augmented | TUNEL-positive apoptotic cells in brain cortex (mutant VCP (mVCP) mice [5]): prevented the appearance of apoptotic cells | cytoplasmic mislocalisation of TDP-43 [6]: ameliorated | HSP70 expression (HSP70 [7]): substantially increased | maximal tetanic force of EDL muscle (mutant VCP (mVCP) mice [8]; 14 month old mVCP mice, versus wt-VCP controls, previously published study): prevented this reduction in muscle force | myofibre atrophy and degeneration (mutant VCP (mVCP) mice [8]; [10]): reduced myofibre atrophy and degeneration | protein aggregation and TDP-43 mislocalisation in skeletal muscle (mutant VCP (mVCP) mice [8]; [10]): decreased protein aggregation and TDP-43 mislocalisation | decline in grip strength relative to body weight (mutant VCP (mVCP) mice [8]; mVCP mice, 4 to 14 months of age, untreated mVCP 44.1% reduction): no significant decline in grip strength | expression of HSP70 in muscle (Western blot) (HSP70 [9]): two-fold
